Laboratory results from patent US10933062B2, “Analgesic therapeutic and method, 1-(3-4(((1 R,3S,5S)-adamantan-1-yl)(phenyl)methyl)propyl)-4-methylpiperazine and salts thereof” (ANAVEX LIFE SCIENCES CORP., priority 2016, dated 2021).
“And” between values parts separate entries of the source, which are not always exact repeats. Equal values may be shown once.

Experiments:
[1] = system: model of peripheral mononeuropathy (Bennett model) in rats; assay: Chronic constriction injury (Bennett model) of peripheral mononeuropathy, paw pressure test; assay type: in vivo
[2] = system: patients with nociceptive or neuropathic pain; assay: Patient examples 1-5: oral AV1066, patient-reported pain control; assay type: in vivo, human; conditions: Example 1, bone fracture pain (nociceptive), oral 5 mg/kg/day, days 3, 7, 16, 28
Method: A patient or subject (the terms are used interchangeably) presents with a fractured collar bone arising from a bicycling accident. They are complaining of significant shoulder pain. The patient's pain is classified according to the
International Association for the Study of Pain as nociceptive. They are orally administered AV1066 5 mg/kg/day. They are examined at days 3, 7, 16, and 28. At each visit the patient is assessed for pain control compared with the previous visit.
A patient presents with a second […]. They are complaining of significant pain. The patient's pain is classified according to the International Association for the Study of Pain as nociceptive. They are orally administered the phosphate salt of AV1066 10 mg/kg daily in two doses. They are examined at 12 hours, and daily thereafter for 4 days. At each visit the patient is assessed for pain control compared with the previous visit.
A patient presents with a benign tumor mass compressing their left shoulder causing movement pain. The patient's pain is classified according to the International Association for the Study of Pain as nociceptive. They are orally administered the sodium salt of AV1066 30 mg/kg/day in two doses. They are examined daily thereafter at 3, 7, and 28 days. At each visit the patient is assessed for pain control compared with the previous visit. […]

[3] = system: model of TNBS-induced chronic colonic hypersensitivity in rats; assay: TNBS-induced chronic colonic hypersensitivity, colorectal balloon distension threshold; conditions: for % antihypersensitivity activity / Colonic distension threshold (mmHg): TNBS 50 mg/kg
[4] = system: model of peripheral mononeuropathy (Bennett model) in rats; conditions: typical values given for comparison; cited from earlier work
[5] = injured paw, TO (pre-drug), 10 mg/kg p.o.
[6] = injured paw, TO (pre-drug), 30 mg/kg p.o.
[7] = injured paw, TO (pre-drug), 100 mg/kg p.o.
[8] = injured paw, TO + 30 min, 10 mg/kg p.o.
[9] = injured paw, TO + 30 min, 30 mg/kg p.o.
[10] = injured paw, TO + 30 min, 100 mg/kg p.o.
[11] = injured paw, TO + 60 min, 10 mg/kg p.o.
[12] = injured paw, TO + 60 min, 30 mg/kg p.o.
[13] = injured paw, TO + 60 min, 100 mg/kg p.o.
[14] = injured paw, TO + 120 min, 10 mg/kg p.o.
[15] = injured paw, TO + 120 min, 30 mg/kg p.o.
[16] = injured paw, TO + 120 min, 100 mg/kg p.o.
[17] = injured paw, TO + 180 min, 10 mg/kg p.o.
[18] = injured paw, TO + 180 min, 30 mg/kg p.o.
[19] = injured paw, TO + 180 min, 100 mg/kg p.o.
[20] = single administration 10, 30, 100 mg/kg PO
[21] = injured paw, TO (pre-drug), 3 mg/kg s.c.
[22] = injured paw, TO + 30 min, 3 mg/kg s.c.
[23] = injured paw, TO + 60 min, 3 mg/kg s.c.
[24] = injured paw, TO + 120 min, 3 mg/kg s.c.
[25] = injured paw, TO + 180 min, 3 mg/kg s.c.

CN1CCN(CCCc2ccc(C(c3ccccc3)C34CC5CC(CC(C5)C3)C4)cc2)CC1 [AV1066, 1-(3-4(((1R,3S,5S)-adamantan-1-yl)(phenyl)methyl)propyl)-4-methylpiperazine]
difference in the nociceptive threshold vs. vehicle ([1]; 30 mg/kg dose, T=+30 minutes): 116 g | anti-hyperalgesic effect ([1]; 30 mg/kg dose, T=+30 minutes, vs vehicle): 59% | untoward effects ([1]; CCI study, 10, 30, 100 mg/kg PO): No untoward effects | Nociceptive threshold ([1]; control paw, TO, 10 mg/kg p.o.): 366 ± 11.9 g | Nociceptive threshold ([1]; control paw, TO, 30 mg/kg p.o.): 352 ± 15.8 g | Nociceptive threshold ([1]; control paw, TO, 100 mg/kg p.o.): 354 ± 9.9 g | % variation vs control paw [1, 5]: −54% | % variation vs vehicle-treated group [1, 5]: −15% | Nociceptive threshold [1, 5]: 170 ± 11.6 g | % variation vs control paw [1, 6]: −45% | % variation vs vehicle-treated group [1, 6]: −4% | Nociceptive threshold [1, 6]: 192 ± 8.5 g | % variation vs control paw [1, 7]: −49% | % variation vs vehicle-treated group [1, 7]: −9% | Nociceptive threshold [1, 7]: 182 ± 9.6 g | % variation vs control paw [1, 8]: −32% | % variation vs pre-drug threshold [1, 8]: 38% | % variation vs vehicle-treated group [1, 8]: 19% | Nociceptive threshold [1, 8]: 234 ± 11.2 g | % variation vs control paw [1, 9]: −19% | % variation vs pre-drug threshold [1, 9]: 63% | % variation vs vehicle-treated group [1, 9]: 59% | Nociceptive threshold ([1]; injured paw, TO + 30 min, 30 mg/kg p.o., 30 mg/kg): 312 g and 312 ± 15.5 g | % variation vs control paw [1, 10]: −20% | % variation vs pre-drug threshold [1, 10]: 64% | % variation vs vehicle-treated group [1, 10]: 52% | Nociceptive threshold [1, 10]: 298 ± 21.4 g | % variation vs control paw [1, 11]: −29% | % variation vs pre-drug threshold [1, 11]: 39% | % variation vs vehicle-treated group [1, 11]: 6% | Nociceptive threshold [1, 11]: 236 ± 11.5 g | % variation vs control paw [1, 12]: −16% | % variation vs pre-drug threshold [1, 12]: 43% | % variation vs vehicle-treated group [1, 12]: 23% | Nociceptive threshold [1, 12]: 274 ± 14.3 g | % variation vs control paw [1, 13]: −11% | % variation vs pre-drug threshold [1, 13]: 60% | % variation vs vehicle-treated group [1, 13]: 32% | Nociceptive threshold [1, 13]: 292 ± 17.2 g | % variation vs control paw [1, 14]: −30% | % variation vs pm-drug threshold [1, 14]: 27% | % variation vs vehicle-treated group [1, 14]: 6% | Nociceptive threshold [1, 14]: 216 ± 12.6 g | % variation vs control paw [1, 15]: −21% | % variation vs pm-drug threshold [1, 15]: 41% | % variation vs vehicle-treated group [1, 15]: 32% | Nociceptive threshold [1, 15]: 270 ± 11.6 g | % variation vs control paw [1, 16]: −23% | % variation vs pm-drug threshold [1, 16]: 44% | % variation vs vehicle-treated group [1, 16]: 28% | Nociceptive threshold [1, 16]: 262 ± 12.5 g | % variation vs control paw [1, 17]: −23% | % variation vs pre-drug threshold [1, 17]: 38% | % variation vs vehicle-treated group [1, 17]: 9% | Nociceptive threshold [1, 17]: 234 ± 15.5 g | % variation vs control paw [1, 18]: −36% | % variation vs pre-drug threshold [1, 18]: 1% | % variation vs vehicle-treated group [1, 18]: −9% | Nociceptive threshold [1, 18]: 194 ± 13.0 g | % variation vs control paw [1, 19]: −27% | % variation vs pre-drug threshold [1, 19]: 16% | % variation vs vehicle-treated group [1, 19]: −1% | Nociceptive threshold [1, 19]: 212 ± 15.8 g | effect on nociceptive (pain) threshold of the affected paw, in words [1, 20]: dose-dependently restores the pain threshold lowered by chronic constriction injury | time at which efficacy was apparent post-dose [1, 20]: 30 min | time for which efficacy remained significant [1, 20]: 2 h | max effect ([1]; whatever the dose): 59% | patient-reported pain control [2]: tolerable and improved at each visit | % antihypersensitivity activity ([3]; 10 mg/kg p.o.): 26% | Colonic distension threshold (mmHg) ([3]; 10 mg/kg p.o.): 30.3 ± 1.3 mmHg | % antihypersensitivity activity ([3]; 30 mg/kg p.o.): 71% | Colonic distension threshold (mmHg) ([3]; 30 mg/kg p.o.): 36.4 ± 1.3 mmHg | untoward effects ([3]; TNBS study, single PO administration): No untoward effects

CN1CC[C@]23c4c5ccc(O)c4O[C@H]2[C@@H](O)C=C[C@H]3[C@H]1C5.Cl [Morphine HCl, reference compound]
Nociceptive threshold ([1]; control paw, TO, 3 mg/kg s.c.): 349 ± 11.1 g | % variation vs control paw [1, 21]: −47% | % variation vs vehicle-treated group [1, 21]: −8% | Nociceptive threshold [1, 21]: 184 ± 11.9 g | % variation vs control paw [1, 22]: −11% | % variation vs pre-drug threshold [1, 22]: 212% | % variation vs vehicle-treated group [1, 22]: 194% | Nociceptive threshold [1, 22]: 576 ± 46.8 g | % variation vs control paw [1, 23]: −6% | % variation vs pre-drug threshold [1, 23]: 212% | % variation vs vehicle-treated group [1, 23]: 159% | Nociceptive threshold [1, 23]: 576 ± 28.8 g | % variation vs control paw [1, 24]: −11% | % variation vs pm-drug threshold [1, 24]: 110% | % variation vs vehicle-treated group [1, 24]: 90% | Nociceptive threshold [1, 24]: 387 ± 40.4 g | % variation vs control paw [1, 25]: −19% | % variation vs pre-drug threshold [1, 25]: 31% | % variation vs vehicle-treated group [1, 25]: 13% | Nociceptive threshold [1, 25]: 242 ± 19.0 g

NCC1(CC(=O)O)CCCCC1 [gabapentin]
anti-hyperalgesic effect, typical range of non-opioid treatments [4]: 40-50%
